Data published in patent US20230096781A1, “METHODS OF CONTROLLING BODYWEIGHT BY MODULATING PHOSPHATIDYLINOSITOL 5-PHOSPHATE 4-KINASE BETA ACTIVITY” (University of Cincinnati, priority 2020, published 2023).
Numbering of substitutions follows the chain as printed. Values joined by “and” are separate entries in the source; they are usually repeats but may differ in a detail not shown here. Equal values may be shown once.

Key:
PI5P4KβT201M [1] = target: T1, PI5P4KβT201M (Homo sapiens, UniProt P78356, T201M); test: PNT hydrolysis activity of mutant PI5P4Kβ; format: biochemical
T1 sequence (P78356 1-416 T201M): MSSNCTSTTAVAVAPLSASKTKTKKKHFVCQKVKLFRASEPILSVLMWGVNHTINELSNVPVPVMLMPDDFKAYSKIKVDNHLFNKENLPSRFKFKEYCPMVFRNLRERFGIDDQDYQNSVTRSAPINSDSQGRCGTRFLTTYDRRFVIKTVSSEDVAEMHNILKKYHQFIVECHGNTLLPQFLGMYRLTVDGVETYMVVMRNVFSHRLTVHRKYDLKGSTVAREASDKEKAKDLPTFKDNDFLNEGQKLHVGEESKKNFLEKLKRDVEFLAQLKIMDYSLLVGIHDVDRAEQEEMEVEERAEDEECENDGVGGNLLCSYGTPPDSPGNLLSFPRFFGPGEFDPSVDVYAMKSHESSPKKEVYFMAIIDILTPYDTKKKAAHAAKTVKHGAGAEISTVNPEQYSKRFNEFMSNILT

[2] = tested on: PI5P4Kβ with mutation of Asn-203; test: Nucleotide binding of Asn-203 mutant PI5P4Kβ
Description: The functional role of Asn-203 was analyzed, because this is the only invariant residue in the base-recognition loop of PI4P5K and PI5P4K.

PI5P4KβF205L [3] = target: T2, PI5P4KβF205L (Homo sapiens, UniProt P78356, F205L); conditions: F205L mutant; partly reported in Sumita et al., 2016; cited from earlier work
T2 sequence (P78356 1-416 F205L): T1 sequence (P78356 1-416 T201M) with M201T, F205L

PI5P4KβT201M [4] = target: T1, PI5P4KβT201M; conditions: T201M mutant; partly reported in Sumita et al., 2016; cited from earlier work
PI5P4KβF205L [5] = target: T2, PI5P4KβF205L; test: PNT hydrolysis activity of mutant PI5P4Kβ; format: biochemical
Description: (§1) (A)-(C) show PNT hydrolysis activity of mutant PI5P4Kβ as compared to the WT. The ratios of dephosphorylated/triphosphorylated nucleotides after reaction are shown. The N203A activity is almost negligible.
(§2) In addition, the hydrolysis activity of the mutants on four active triphosphorylated nucleotides were analyzed, XTP, ITP, 6-thio-GTP, and 2a-ATP. […] In the crystal structure of the PI5P4KβN203D-ITP complex, ITP binds in a similar manner as the WT.

PI5P4KβN203D = target: T3, PI5P4KβN203D (Homo sapiens, UniProt P78356, N203D); test: PNT hydrolysis activity of mutant PI5P4Kβ; format: biochemical
T3 sequence (P78356 1-416 N203D): T1 sequence (P78356 1-416 T201M) with M201T, N203D
Description: as §1, §2

PI5P4Kβ [6] = target: T4, PI5P4Kβ (Homo sapiens, UniProt P78356); test: NMR-based PNT hydrolysis assay; format: biochemical; conditions: WT PI5P4Kβ
T4 sequence (P78356 1-416): T1 sequence (P78356 1-416 T201M) with M201T
Description: (A) The PNT hydrolysis activity of PI5P4Kβ. indicative of the kinase activity of PI5P4Kβ. was assessed by the signal intensity ratios of diphosphorylated/triphosphorylated nucleotides after the reaction. The average values from three experiments are shown with error bars (SD). Highly hydrolyzed nucleotides (>0.1 of the ratios) were shown for GTP, ITP, XTP, 6-thio-GTP, and 2a-ATP. (B), (C), and (D) show interactions of the PI5P4Kβ-ITP, PI5P4Kβ-XTP, and PI5P4Kβ-2a-ATP complexes, respectively. Dotted lines represent hydrogen bonds between the PNTs and PI5P4Kβ.
(§3) Next, the mechanism of the GTP preference of PI5P4Kβ was investigated using a series of ATP and GTP analogs. Based on analysis of the GTP-PI5P4Kβ interaction (FIG. 10(B)), 10 PNTs with different configurations at the 2nd and 6th positions of the purine base (NH2(2) and O(6) in guanine base, respectively) were chosen (FIG. 10(A)). The hydrolysis activities of PI5P4Kβ for these PNTs were quantified by an NMR-based assay (data not shown). […] On the other hand, O(6) seems to be required for the activity. […] This view is also supported by the larger energetic contribution of the O(6) moiety compared to the NH2(2) moiety in the FMO interaction analysis between GTP and PI5P4Kβ (FIG. 15).

PI5P4Kβ [7] = target: T4, PI5P4Kβ; test: Competition assay of 32P-GTP-dependent PI(5)P phosphorylation by cold PNTs; format: biochemical; conditions: 250 μM 32P-GTP, 3.2-400 μM cold PNT
Description: (A) The kinase reaction was carried out in a total of 50 μl of reaction buffer (50 mM HEPES (pH 7.4), 0.2 mM EGTA, and 10 mM MgCl2) containing 20 μM of PI(5)P (d-myo-phosphatidylinositol 5-phosphate diC16) that was suspended by sonication. 250 μM of γ-^32P radiolabeled GTP was incubated with 1 μg of recombinant PI5P4Kβ for 10 min at room temperature. 20 μM of PI(5)P was used with 3 μM 1,2-dipalmitoyl-phosphatidylserine as the basal lipid. Phosphoinositides were extracted by a methanol/chloroform (1/1, v/v) mix and subjected to a thin-layer chromatography (TLC) assay using heat-activated 2% […] silica gel 60 plates. The solvent was 1-propanol/2 M acetic acid (65/35, v/v). In competition assay, 250 μM of ^32P-labeled GTP was mixed with 3.2-400 μM triphosphorylated nucleotides, and the PI(5)P phosphorylation by GTP was monitored by quantifying the amount of radiolabeled PI(4,5)P2. (B) Relative kinase activities in the presence of each PNT against those without them (i.e., only ^32P-GTP condition) are shown.
as §3

[8] = tested on: WT-PI5P4Kβ-expressing Pip4K2b^−/− cells; test: Lysotracker staining of serum-starved MEFs (lysosomal acidification); format: cell-based, mouse
[9] = tested on: isogenic Pip4K2b^−/− cells; test: as above; format: cell-based, mouse; conditions: 10 μM MPA or 20 μM Link17
[10] = tested on: WT PI5P4Kβ-reconstituted Pip4k2b^−/− cells; test: Nigericin-induced vacuolization; format: cell-based, mouse; conditions: within 4h after nigericin treatment
Description: (§4) Next, treatment with microbial toxin nigericin, a selective K^+/H^+ exchanger that is activated in the lysosome and induces lysosome rupture and following cell death, was assessed. […] The autophagic flux in MEF, 293T, and HCT116 cells was decreased by Link17 treated cells (FIG. 7(A),(B)). In the isogenic MEFs, autophagy was decreased in Pip4k2b^−/− and F205L cells, compared to WT cells (FIG. 7(C)).

Pip4k2b^−/− cells = test: Nigericin-induced vacuolization; format: cell-based, mouse; conditions: within 4h after nigericin treatment
Description: (D) is a graph showing cytotoxic death by nigericin was suppressed in Pip4K2b^−/− cells and F205L-PI5P4Kβ-expressing Pip4K2b−/− cells.
as §4

[11] = tested on: WT PI5P4Kβ-reconstituted Pip4k2b^−/− cells; test: Cell viability after nigericin treatment; format: cell-based, mouse
Description: as §4

PI5P4Kβ [12] = target: T4, PI5P4Kβ; conditions: KM for GTP; cited from earlier work

Row | Compound | hydrolysis activity compared to WT (PI5P4KβF205L [5]) | hydrolysis activity compared to WT (PI5P4KβN203D) | hydrolysis activity of PI5P4Kβ (in words) (PI5P4Kβ [6]) | inhibition of GTP-dependent PI(5)P phosphorylation activity (PI5P4Kβ [7]) | further results
1 | Nc1ncnc2c1ncn2[C@@H]1O[C@H](COP(=O)(O)OP(=O)(O)OP(=O)(O)O)[C@@H](O)[C@H]1O [ATP] | not affected | significantly reduced |  |  | hydrolysis activity compared to WT (PI5P4KβT201M [1]): more active; binding of nucleotide [2]: markedly reduced the binding; nucleotide-dependent kinase activity (PI5P4KβF205L [3]): comparable to that of WT PI5P4Kβ; nucleotide-dependent kinase activity (PI5P4KβT201M [4]): higher ATP-dependent activity
2 | Nc1nc(Cl)c2ncn(C3OC(COP(=O)(O)OP(=O)(O)OP(=O)(O)O)C(O)C3O)c2n1 (stereo not shown) [2a-6C1-PTP] |  |  | very low hydrolysis activity |  | 
3 | COc1c(C)c2c(c(O)c1C/C=C(\C)CCC(=O)O)C(=O)OC2 [MPA, mycophenolic acid] |  |  |  |  | lysosomal acidification (lysotracker staining) ([8]; 10 μM MPA or 20 μM Link17): suppressed lysosomal acidification; lysosomal acidification (lysotracker staining) ([8]; 10 μM MPA or 20 μM Link17, listed as mycophenolic acid): had a deacidification effect; lysosomal acidification (lysotracker staining) [9]: not
4 | CO[C@@H]1C[C@@H](C[C@H]2CC[C@H](C)[C@H]([C@@H](C)C(=O)O)O2)O[C@]2(O[C@](C)([C@H]3CC[C@@](C)([C@@H]4O[C@@H]([C@H]5O[C@@](O)(CO)[C@H](C)C[C@@H]5C)C[C@@H]4C)O3)C[C@H]2C)[C@@H]1C [nigericin] |  |  |  |  | hypervacuolization after nigericin treatment [10]: hypervacuolization was observed; hypervacuolization after nigericin treatment (Pip4k2b^−/− cells): not; cell viability [11]: decreased cell viability
5 | O=c1[nH]c(=O)c2ncn([C@@H]3O[C@H](COP(=O)(O)OP(=O)(O)OP(=O)(O)O)[C@@H](O)[C@H]3O)c2[nH]1 [XTP, xanthosine triphosphate] | diminished susceptibility | significantly reduced | substantial activity | strongly inhibited | hydrolysis activity compared to GTP (PI5P4Kβ [6]): 1.9 times
6 | Nc1nc2c(ncn2[C@@H]2O[C@H](COP(=O)(O)OP(=O)(O)OP(=O)(O)O)[C@@H](O)[C@H]2O)c(=O)[nH]1 [GTP, guanosine triphosphate] | less active | significantly reduced |  |  | binding of nucleotide [2]: markedly reduced the binding; nucleotide-dependent kinase activity (PI5P4KβF205L [3]): reduction of the GTP-dependent activity; Km (PI5P4Kβ [12]): ~100 µM and ~88 µM; nucleotide-dependent kinase activity (PI5P4KβT201M [4]): decreased GTP-dependent kinase activity

Now from value to molecule, other results behind:

Row | hydrolysis activity compared to WT (PI5P4KβF205L [5]) | hydrolysis activity compared to WT (PI5P4KβN203D) | hydrolysis activity of PI5P4Kβ (in words) (PI5P4Kβ [6]) | inhibition of GTP-dependent PI(5)P phosphorylation activity (PI5P4Kβ [7]) | Compound | further results
7 |  |  | very low hydrolysis activity |  | COc1nc(N)nc2c1ncn2[C@@H]1O[C@H](COP(=O)(O)OP(=O)(O)OP(=O)(O)O)[C@@H](O)[C@H]1O [O6-me-GTP] | 
8 | less active |  | substantial activity | strongly inhibited | Nc1nc(=S)c2ncn([C@@H]3O[C@H](COP(=O)(O)OP(=O)(O)OP(=O)(O)O)[C@H](O)C3O)c2[nH]1 (stereo partly shown) [6-thio-GTP] | 
9 | less active | hyperactive | substantial activity | strongly inhibited | O=P(O)(O)OP(=O)(O)OP(=O)(O)OC[C@H]1O[C@@H](n2cnc3c(O)ncnc32)[C@H](O)[C@@H]1O [ITP, inosine triphosphate] | hydrolysis activity compared to GTP (PI5P4Kβ [6]): 1.3 times
10 | not affected | significantly reduced | substantial activity |  | Nc1nc(N)c2ncn([C@@H]3O[C@H](COP(=O)(O)OP(=O)(O)OP(=O)(O)O)[C@@H](O)[C@H]3O)c2n1 [2a-ATP] | hydrolysis activity compared to WT (PI5P4KβT201M [1]): more active
